# Laboratory results from US10413532B2, “Pharmaceutical compositions containing a PDE4 inhibitor and a PI3 delta or dual PI3 delta-gamma kinase inhibitor” (Rhizen Pharmaceuticals SA, priority 2012, dated 2019).
# Like-named read-outs stand apart in the source and are kept apart here.
# Tests used:
# [1] = tested on: elastase; experiment: fMLP induced elastase release from human neutrophils; format: cell-based; conditions: compound alone at 300 nM
# Method: Blood was procured from a local blood bank. Neutrophils were obtained using the dextran sedimentation method. Cells were plated at 100,000 cells per well in a 96-well plate, treated with fMLP (1 μM) and N-Succinyl-Ala-Ala-Ala-p-nitroanalide (1 μM) (Sigma) and incubated for 2 h. Intensity of digested substrate after incubation was determined by measuring the absorbance at 405 nm on a Fluostar Omega (BMG Labtech, NC, USA).
# [2] = tested on: pAkt (S473); experiment: phospho-Akt (S473) in differentiated U937 cells stimulated with cigarette smoke extract (SDS-PAGE); format: cell-based; conditions: Homo sapiens, U-937; compound alone; differentiated U937, CSE; read-out: IC50 of inhibition of Akt phosphorylation
# Method: U-937 monocytes were differentiated into macrophages by incubation with 50 ng/ml PMA for 48 h. Cells were trypsinized and plated at a density of 100,000 per well and stimulated with CSE for 2 h in starvation media. Lysates were made using RIPA buffer and run by SDS-PAGE, transferred to PVDF membrane and probed with phospho-Akt (S473) antibody (Cell signaling, USA) followed by anti-rabbit IgG (Cell signaling, USA). Band intensity was calculated using ImageJ 1.42 (NIH, USA).
# [3] = tested on: MMP-9; experiment: MMP-9 release from PMA-induced THP-1 cells (gelatin zymography); format: cell-based, human; conditions: compound alone at 300 nM
# Method: Gelatinase activity of MMP-9 was determined by zymography. Proteins in supernatant (after incubation of THP-1 cells with 50 ng PMA for 24 h) were separated on gels containing 0.1% gelatin (Sigma, USA). Gels were re-natured by incubation in 2.5% Triton X-100 for 30 min, incubated overnight in substrate buffer (50 mMTris-HCl, pH 7.5) containing 10 mM CaCl2 and 0.05% ZnCl2 at 37° C. and stained with Coomassie brilliant blue (0.5%). […] Molecular weight markers (Fermentas, Lithuania) were run with each gel. Band intensity was calculated using ImageJ 1.42 (NIH, USA).
# [4] = tested on: macrophage and neutrophil infiltration; experiment: Chronic cigarette smoke induced cell infiltration in male Balb/c mice; format: in vivo; conditions: alone at 1 mg/kg oral; chronic CS, mouse
# Method: Animals were acclimatized for seven days prior to the start of the experiment. Animals were randomly distributed to various groups based on their body weights. Mice were exposed to the mainstream smoke of 4 cigarettes from day 1 to day 11. Exposure to the smoke of each cigarette lasted for […] (each cigarette was completely burned in the first two minutes, followed by an air flow with animal ventilator) and were exposed for the next 20 min with fresh room air. After every second cigarette an additional break of 20 min with exposure to fresh room air was conducted. Control animals were exposed to the room air chamber. Test compound was administered by the oral route from day 6 to day 11 before 30 mins whole body smoke exposure. On day 12, 24 hours after the last cigarette smoke (CS) exposure animals were exsanguinated under anaesthesia, and the trachea was cannulated and the lungs were lavaged with 0.5 ml aliquots of heparinised PBS (1 unit/nil) four times through tracheal cannula (total volume 2 ml). Bronchioalveolar (BAL) collected was stored at 2-8° C. until assayed for total cell and differential leukocyte count. BAL fluid was centrifuged (500×g for 10 min) and the resulting cell pellet was resuspended in 0.5 ml of heparinised saline. The total number of white blood cells was determined in BAL fluid and blood using a blood cell counter and adjusted to 1×10^6 cell/ml. Differential cell count was calculated manually Forty microliters of the cell suspension was centrifuged using cytospin 3 to prepare a cell smear. The cell smear was stained with a blood staining solution for differentiation and microscopically observed by identifying each cell according to its morphological characteristics. The number of each cell type among 300 white blood cells in the cell smear was determined and expressed as a percentage, and the number of neutrophils and macrophages in each BAL fluid were calculated.
# [5] = tested on: TNFα; experiment: LPS induced TNFα in PBMC; format: cell-based; conditions: 1000 nM alone, LPS 1 μg/ml, 24 h
# Method: PBMC (peripheral blood mononuclear cells) from whole blood were isolated by density gradient using Histopaque and incubated with the desired concentration of inhibitor for 15 minutes. LPS (1 μg/ml) was added and then incubated for 24 hours. The supernatant was collected and TNFα estimated using an eBioscience TNFα ELISA kit.
# PBMC from whole blood were isolated by density gradient using Histopaque and incubated with the desired concentration of inhibitor for 15 minutes. LPS (1 μg/m1) was added and then incubated for 24 hours. The supernatant was collected and TNFα estimated using an eBioscience TNFα ELISA kit.
# [6] = tested on: macrophage and neutrophil infiltration; experiment: Acute cigarette smoke induced cell infiltration in male Balb/c mice; format: in vivo; conditions: acute CS, mouse; for ED50: oral
# Method: Animals were acclimatized for seven days prior to the start of the experiment. Animals were randomly distributed to various groups based on their body weights. On day 1, mice were administered by test compound or vehicle by the oral route and after 30 mins test compound administration animals were placed in a whole body exposure box. The mice were exposed to the mainstream smoke of 6 cigarettes from day 1 to day 4. Exposure to the smoke of each cigarette lasted for 10 min (cigarettes were completely burned in the first two minutes and followed by an air flow with animal ventilator) followed by exposure for the next 20 min with fresh room air. After every second cigarette an additional break of 20 min with exposure to fresh room air was conducted. Control animals were exposed to the room air chamber. From day 1 to day 4 animals were administered test compound by the oral route. On day 5, 24 hours after the last cigarette smoke (CS) exposure. animals were exsanguinated under anaesthesia, and the trachea was cannulated and the lungs were lavaged with 0.5 ml aliquots of heparinised PBS (1 unit/ml) four times through a tracheal cannula (total volume 2 ml). Bronchioalveolar (BAL) collected was stored at 2-8° C. until assayed for total cell and differential leukocyte count. BAL fluid was centrifuged (500×g for 10 min) and the resulting cell pellet was resuspended in 0.5 ml of heparinised saline. The total number of white blood cells was determined in BAL fluid and blood using a blood cell counter and adjusted to 1×10^6 cell/ml. Differential cell count was calculated manually. Forty microliters of the cell suspension was centrifuged using cytospin 3 to prepare a cell smear. The cell smear was stained with a blood staining solution for differentiation and microscopically observed by identifying each cell according to its morphological characteristics. The number of each cell type among 300 white blood cells in the cell smear were determined and expressed as a percentage, and the number of neutrophils and macrophages in each BAL fluid were calculated.
# The procedure for acute cigarette smoke induced cell infiltration in male Balb/c mice described in Example 1 was performed with Compound A1 and roflumilast
# [7] = tested on: neutrophil infiltration; experiment: Lipopolysaccharide induced pulmonary neutrophilia in female Wistar rats; format: in vivo
# Method: After the quarantine period, fasted animals were randomized and divided into groups depending on their body weights. Test compound was prepared as a suspension in a vehicle consisting of 0.5% methylcellulose in which Tween 80 was used as a suspending agent. Compounds or vehicle were administered by oral gavage in a volume of 10 mL/kg. Animals were anaesthetized with ketamine and LPS solution was administered intratracheally 30 minutes after compound administration at a dose of 1 mg/kg. Six hours after LPS instillation, animals were exsanguinated under anaesthesia, and the trachea was cannulated, and lungs were lavaged with 5-ml aliquots of heparinised PBS (1 unit/ml) four times through the tracheal cannula (total volume 20 ml). Bronchioalveolar (BAL) fluid was stored at 2-8° C. until assayed for total cell and differential leukocyte count. BAL fluid was centrifuged (500×g for 10 min) and the resulting cell pellet was resuspended in 0.5 ml of heparinised saline. The total numbers of white blood cells were determined in BAL fluid or blood using a cell counter and were adjusted to 1×10^6 cell/ml. Differential cell count was calculated manually. One hundred microliters of the cell suspension was centrifuged using cytospin 3 to prepare a cell smear. The cell smear was stained with a blood staining solution for differentiation and slides were microscopically observed to identify eosinophils according to their morphological characteristics. The number of each cell type among 300 white blood cells in the cell smear was determined and expressed as a percentage of total cells. The number of eosinophil in BALF was calculated.
# The procedure for LPS induced pulmonary neutrophilia in female Wistar rats as described in Example 1 was performed with compound A1 and roflumilast.
# [8] = tested on: TNFα; experiment: LPS induced TNFα in MH-S (mouse alveolar macrophage) cells; format: cell-based; conditions: 130 nM alone
# Method: MH-S represents a mouse alveolar macrophage cell line that secretes copious amounts of TNFα upon induction by LPS. Cells were plated at 150,000 cells per well. 10 nM of Compound A1 (final concentration) was added 15 minutes prior to the addition of roflumilast. LPS (1 μg/ml) was added and then incubated for 4 hours. The supernatant was collected after 20 hours and TNFα was estimated using an ELISA kit.
# [9] = 3 mg/kg oral, dose-response study
# [10] = combination study, alone at 3 mg/kg
smiles,measurement,setting,value
"Cc1ccccc1-n1c(Cn2cnc3c(N)ncnc32)nc2cccc(C)c2c1=O [Compound B, 2-((6-amino-9H-purin-9-yl)methyl)-5-methyl-3-o-tolylquinazolin-4(3H)-one]",reduction of elastase release,[1],10%
same,IC50,[2],780 nM
same,effect on MMP-9 release,[3],no effect
"C[C@H](Nc1ncnc2[nH]cnc12)c1oc2ccc(F)cc2c(=O)c1-c1cccc(F)c1 [Compound C, (S)-2-(1-(9H-purin-6-ylamino)ethyl)-6-fluoro-3-(3-fluorophenyl)-4H-chromen-4-one]",inhibition of macrophage infiltration,[4],−13.30%
same,inhibition of neutrophil infiltration,[4],4.08%
same,decrease of TNFα secretion,[5],20%
same,percent inhibition of macrophage infiltration,[6]; 1 mg/kg oral,34.84%
same,percent inhibition of neutrophil infiltration,[6]; 1 mg/kg oral,29.06%
same,percent inhibition of macrophage infiltration,[6]; [9],42.09%
same,percent inhibition of neutrophil infiltration,[6]; [9],62.38%
same,percent inhibition of macrophage infiltration,[6]; 10 mg/kg oral,61.77%
same,percent inhibition of neutrophil infiltration,[6]; 10 mg/kg oral,74.25%
same,ED50,"[6]; Macrophage, read-out: 50% inhibition (ED50) dose, macrophage infiltration",4.4 mg/kg
same,ED50,"[6]; Neutrophil, read-out: dose of 50% inhibition (ED50) of neutrophil infiltration",2.1 mg/kg
same,inhibition of macrophage infiltration,[6]; [10],30.01%
same,inhibition of neutrophil infiltration,[6]; [10],41.47%
same,percent inhibition of neutrophil infiltration,"[7]; 0.1 mg/kg oral, rat BAL fluid 6 h after LPS",14.15%
same,percent inhibition of neutrophil infiltration,"[7]; 1 mg/kg oral, dose-response study, rat",57.76%
same,percent inhibition of neutrophil infiltration,"[7]; 3 mg/kg oral, rat",56.93%
same,percent inhibition of neutrophil infiltration,"[7]; 10 mg/kg oral, rat",81.55%
same,ED50,"[7]; Neutrophil, oral, rat LPS pulmonary neutrophilia, read-out: 50% inhibition (ED50) dose, neutrophil infiltration",1 mg/kg
same,inhibition of neutrophil infiltration,"[7]; combination study, alone at 1 mg/kg, rat",36.56%
"CCOc1cc([C@@H](CS(C)(=O)=O)N2C(=O)c3cccc(NC(C)=O)c3C2=O)ccc1OC [aprelimilast, reference compound]",decrease in TNFα secretion,[8],~10%
